This is an account of results in US11634452B2, “Compounds for treating neurodegenerative disorders” (ETHNODYNE, priority 2017, dated 2023).

Structures are written as SMILES.

In this assay the test system is primary rat cortical neurons injured with Aβ1-42. Put plainly: Neuroprotective effect on an in vitro model of Alzheimer disease. It is filed as cell-based. On the procedure: These peptides contribute to cerebrovascular lesions and are neurotoxic. This study investigated the neuroprotective effect of the plant extract of the invention on rat primary cortical cultures following exposure to Aβ1-42 in an in vitro AD model (Callizot. N., et al., 2013).
Rat cortical neurons were cultured as described in Example 6.
The cortical neurons were intoxicated with amyloid beta peptides solutions after 11 days of culture in presence of tested compound CR777.
Briefly, Aβ1-42 peptide (Batch: APN09080-1-1, Abcam, United Kingdom) was dissolved in the defined culture medium B27 mentioned above, devoid of serum, at an initial concentration of 40 μmol/L. This solution was gently agitated for 3 days at 37° C. in the dark and immediately used after being properly diluted in culture medium to the concentrations used (20 μM corresponding to 2 μM of AβO, measuring by WB, for survival, neurite network, tau phosphor and caspase 3 activation and 2.5 μM corresponding to 0.25 μM of AβO, for synapses evaluation).
CR777 was solved in DMSO at 10 mM and diluted in culture medium at different concentrations (see table below). The compound was tested on one primary cortical culture in 96 well plates (6 wells per conditions), and was pre-incubated 1 hour before Aβ1-42 application for 24 hours.
24 hours after intoxication, the cell culture supernatant was taken off and the cortical neurons were fixed by a cold solution of ethanol (95%) and acetic acid (5%) for 5 min at −20° C. • Plate 1: Immunostainning (MAP-2/Tau Phosphor)
After permeabilization with 0.1% of saponin, cells were incubated for 2 hours with a) a mouse monoclonal antibody anti phosphoT at dilution of 1/400 in PBS containing 1% fetal calf serum and 0.1% of saponin and b) a chicken polyclonal antibody anti microtubule-associated-protein 2 (MAP-2) at dilution of 1/1000 in PBS containing 1% fetal calf serum and 0.1% of saponin (this antibody stains specifically cell bodies and neurites, allowing study of neuronal cell survival and neurite network).
For each condition, 30 pictures/well (representative of ˜the all well area) were taken automatically using ImageXpress (Molecular Devices) with 20× magnification. All images were taken with the same conditions. Analysis were performed automatically by using Custom Module Editor (Molecular Devices).
The following endpoints were investigated per culture well: • The total neuron survival (MAP-2 staining), • The neurite network (MAP-2 staining) and • hyperphophorylation of T protein (pT) into neurons (pT/MAP-2). • Plate 2: Immunostainning (MAP-2/Caspase 3)
For each condition, 30 pictures/well (representative of ˜the all well area) were taken automatically using ImageXpress (Molecular Devices) with 20× magnification. All images were taken with the same conditions. Analysis were performed automatically by using Custom Module Editor (Molecular Devices). • The total number of caspase 3 positive neuron (overlapping caspase3/MAP-2) were investigated per culture well:
Data is expressed in percentage of control conditions (no injury, no compound=100%). All values are expressed as mean+/−SEM (standard error of the mean) from 6 wells per condition per culture. Neuro-Sys performed graphs and statistical analyses on the different conditions (ANOVA followed by Dunnett's test when allowed, using GraphPad Prism software version 5.0).

The mark [1] stands for this setting: CR777 1 nM to 1 μM added 1 h before Aβ1-42 (20 μM, 24 h).
Where [2] appears, read: CR777 all doses (1 nM to 1 μM), Aβ1-42 20 μM, 24 h.

On to `CC1=C(CO)C(=O)O[C@@H]([C@@H](C)[C@H]2CCC3C4C[C@H](SC[C@H](NC(=O)CC[C@@H](N)C(=O)O)C(=O)NCC(=O)O)[C@]5(O)[C@@H](O)C=CC(=O)[C@]5(C)C4CC[C@@]32C)C1` (stereo partly shown) [CR777], for which, under setting [1], the neurite network result is “significant protective effect” and the neuron survival entry is recorded as “significant protective effect”. Moreover, under setting [2], the “caspase 3 activation” value is “decrease of caspase 3 activation” and the tau hyperphosphorylation entry is given as “significant decrease”.
